Source: patent US20260217735A1, “HETEROCYCLES AND USES THEREOF” (Kumquat Biosciences Inc., priority 2023, published 2026)

Columns and labels:
[1] = target: T1, KRAS G12D (Homo sapiens, UniProt P01116, G12D); experiment: HTRF assay, KRAS G12D interaction with SOS1; type: biochemical; details: bins <500 nM / 500 nM to 1000 nM, read-out: Inhibition of KRAS G12D (IC50)
T1 construct: made in house; host or cells: E. coli, e.g. BL21 (DE3)
Text: (§1) This assay can be also used to assess a selective inhibition or reduction of signaling output of a mutant Ras protein relative to a wildtype, or relative to a different mutant Ras protein. For example, the equilibrium interaction of wildtype KRAS or K-Ras mutant (e.g., wildtype or a mutant thereof) with SOS1 (e.g., hSOS1) can be assessed as a proxy or an indication for the ability of a subject compound to bind and inhibit Ras protein. The HTRF assay detects from (i) a fluorescence resonance energy transfer (FRET) donor (e.g., antiGST-Europium) that is bound to GST-tagged K-Ras mutant to (ii) a FRET acceptor (e.g., anti-6His-XL665) bound to a His-tagged hSOSL1.
(§2) The assay buffer can contain ~5 mM HEPES pH 7.4, ~150 mM NaCl, ~1 mM DTT, 0.05% BSA and 0.0025% (v/v) Igepal. A Ras working solution is prepared in an assay buffer containing typically a suitable amount of the protein construct (e.g., GST-tagged K-Ras mutant) and the FRET donor (e.g., antiGST-Eu(K) from Cisbio, France). A SOS1 working solution is prepared in an assay buffer containing suitable amount of the protein construct (e.g., His-hSOS1) and the FRET acceptor (e.g., anti-6His-XL665 from Cisbio, France). A suitable amount of the protein construct will depend on the range of activity or range of IC50 values being detected or under investigation. For detecting an IC50 within a range of 500 nM, the protein constructs of the same range of molarity can be utilized.
(§3) A fixed volume of DMSO with or without test compound is transferred into a 384-well plate. Ras working solution is added to all wells of the test plate. SOS1 working solution is added to all wells except for those that are subsequently filled with inhibitor control solution. Upon incubation for about 10 minutes or longer, the fluorescence is measured with a M1000Pro plate reader (Tecan) using HTRF detection (excitation 337 nm, emission 1: 620 nm, emission 2: 665 nm). Compounds are tested in duplicate at different concentrations (for example, 10 μM, 2.5 μM, 0.63 μM, 0.16 μM, 0.04 μM, 0.01 μM test compound). The ratiometric data (i.e., emission 2 divided by emission 1) is used to calculate IC50 values against Ras using GraphPad Prism (GraphPad software). Signaling output measured in terms of IC50 values can be obtained and a ratio of IC50 against one mutant relative to another mutant can be calculated. For instance, a selective reduction of K-Ras G12S signaling output can be evidenced by a ratio greater than one. In particular, a selective reduction of K-Ras G12S signaling relative to K-Ras WT signaling is evidenced if the ratio of IC50 (against K-Ras WT) to IC50 (against K-Ras G12S) is greater than 1.

[2] = target: T2, KRAS WT (Homo sapiens, UniProt P01116); experiment: HTRF assay, wildtype KRAS interaction with SOS1; type: biochemical; details: bins <500 nM / 500 nM to 1000 nM, read-out: Inhibition of KRAS WT (IC50)
T2 construct: made in house; host or cells: E. coli, e.g. BL21 (DE3)
Text: as §1, §2, §3

[3] = target: T3, KRAS G12V (Homo sapiens, UniProt P01116, G12V); experiment: HTRF assay, KRAS G12V interaction with SOS1; type: biochemical; details: bins <500 nM / 500 nM to 1000 nM, read-out: Inhibition of KRAS G12V (IC50)
T3 construct: made in house; host or cells: E. coli, e.g. BL21 (DE3)
Text: as §1, §2, §3

[4] = target: T4, KRAS G12S (Homo sapiens, UniProt P01116, G12S); experiment: HTRF assay, KRAS G12S interaction with SOS1; type: biochemical; details: bins <500 nM / 500 nM to 1000 nM, read-out: Inhibition of KRAS G12S (IC50)
T4 construct: made in house; host or cells: E. coli, e.g. BL21 (DE3)
Text: as §1, §2, §3

[5] = system: MiaPaca2 cells; experiment: Ras cellular assay, growth of cells with K-Ras G12C mutation; type: cell-based; details: Homo sapiens, MIA PaCa-2; cell proliferation assay; bins ≤500 nM / >500 nM; read-out: Inhibition of MiaPaca2 Cells (IC50)
Protocol: For example, this assay can be also used to assess selective growth inhibition of a mutant Ras protein relative to a wildtype or different mutant Ras protein.
MIA PaCa-2 (ATCC CRL-1420) and NCI-H1792 (ATCC CRL-5895) cell lines comprise a G12C mutation and can be used to assess Ras cellular signaling in vitro, e.g., in response to an inhibitor compound of the present disclosure. […] MIA PaCa-2 culture medium is prepared with DMEM/Ham's F12 (e.g., with stable glutamine, 10% FCS, and 2.5% horse serum. NCI-H1792 culture medium is prepared with RPMI 1640 (e.g., with stable glutamine) and 10% FCS.
On a first day (e.g., Day 1), Softagar (Select Agar, Invitrogen, 3% in ddH2O autoclaved) is boiled and tempered at 48° C. Appropriate culture medium (i.e., medium) is tempered to 37° C. Agar (3%) is diluted 1:5 in medium (=0.6%) and plated into 96 well plates (Corning, #3904), then incubated at room temperature for agar solidification. A 3% agar is diluted to 0.25% in medium (1:12 dilution) and tempered at 42° C. Cells are trypsinized, counted, and tempered at 37° C. The cells (e.g., MIA PaCa-2 at about 125-150 cells, NCI-H1792 at about 1000 cells) are resuspended in […] 0.25% Agar and plated, followed by incubation at room temperature for agar solidification. The wells are overlaid with […] of the medium. Sister wells in a separate plate are plated for time zero determination. All plates are incubated overnight at 37° C. and 5% CO2.
On a second day (e.g., Day 2), time zero values are measured. A […] volume of Cell Titer 96 Aqueous Solution (Promega) is added to each well and incubated in the dark at 37° C. and 5% CO2. Absorption can be measured at 490 nm and reference wavelength 660 nm. DMSO-prediluted test compounds are added to wells of interest, e.g., with HP Dispenser, to one or more desired concentrations (e.g., a final DMSO concentration of 0.3%).
On a tenth day (e.g., Day 10), absorption by wells treated with the test compounds and control wells are measured with, for example, Cell Titer 96 AQueous and analyzed in comparison to the time zero measurements. The IC50 values are determined using the four parameter fit. The resulting IC50 value is a measurement of the ability of the test compound to reduce cell growth of Ras-driven cells (e.g., tumor cell lines) in vitro and/or in vivo.

T3 sequence (P01116 1-188 isoform P01116-2 G12V): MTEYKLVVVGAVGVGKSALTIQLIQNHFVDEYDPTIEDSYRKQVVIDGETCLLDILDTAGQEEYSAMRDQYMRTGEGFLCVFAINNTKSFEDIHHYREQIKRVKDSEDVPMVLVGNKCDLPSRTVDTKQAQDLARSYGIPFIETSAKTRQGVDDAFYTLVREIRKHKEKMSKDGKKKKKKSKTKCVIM
T1 sequence (P01116 1-188 isoform P01116-2 G12D): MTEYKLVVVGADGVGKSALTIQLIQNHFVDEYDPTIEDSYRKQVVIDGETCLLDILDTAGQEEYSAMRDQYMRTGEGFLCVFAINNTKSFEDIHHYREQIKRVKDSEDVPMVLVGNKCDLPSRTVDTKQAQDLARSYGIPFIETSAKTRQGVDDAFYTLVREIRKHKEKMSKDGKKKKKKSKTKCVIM
T4 sequence (P01116 1-188 isoform P01116-2 G12S): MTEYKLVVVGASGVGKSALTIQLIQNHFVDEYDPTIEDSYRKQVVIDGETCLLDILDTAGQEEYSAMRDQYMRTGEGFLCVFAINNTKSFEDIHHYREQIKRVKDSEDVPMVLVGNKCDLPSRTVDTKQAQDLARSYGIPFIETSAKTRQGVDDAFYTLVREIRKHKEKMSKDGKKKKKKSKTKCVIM
T2 sequence (P01116 1-188 isoform P01116-2): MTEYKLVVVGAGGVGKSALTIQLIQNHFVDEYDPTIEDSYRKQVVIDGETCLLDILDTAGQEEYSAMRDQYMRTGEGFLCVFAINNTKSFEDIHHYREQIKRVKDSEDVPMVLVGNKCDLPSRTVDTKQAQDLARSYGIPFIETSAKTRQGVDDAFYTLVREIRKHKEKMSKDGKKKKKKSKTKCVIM

Structure (SMILES)	IC50 [1] [nM]	IC50 [2] [nM]	IC50 [3] [nM]	IC50 [4] [nM]	IC50 [5] [nM]
CCN(c1nc(OC[C@@]23CCCN2C[C@H](F)C3)nc2c(F)c(-c3ccc(F)c4sc(N)c(C#N)c34)c(C(F)(F)F)cc12)[C@@H]1CCN(C(=O)n2ccc(Cl)n2)[C@@H]1C (atropisomer, axis not shown; (aS)) [Compound 193, (S)-2-amino-4-(4-(((2R,3R)-1-(3-chloro-1H-pyrazole-1-carbonyl)-2-methylpyrrolidin-3-yl)(ethyl)amino)-8-fluoro-2-(((2R,7aS)-2-fluorotetrahydro-1H-pyrrolizin-7a(5H)-yl)methoxy)-6-(trifluoromethyl)quinazolin-7-yl)-7-fluorobenzo[b]thiophene-3-carbonitrile]	< 500	< 500	< 500	< 500	≤ 500
CN(c1nc(OC[C@@]23CCCN2C[C@H](F)C3)nc2c(F)c(-c3ccc(F)c4sc(N)c(C#N)c34)c(Cl)cc12)C1CN(C(=O)n2ccnc2)CC1F (mixture of isomers) [Compound 214, 2-amino-4-(6-chloro-8-fluoro-4-((4-fluoro-1-(1H-imidazole-1-carbonyl)pyrrolidin-3-yl)(methyl)amino)-2-(((2R,7aS)-2-fluorotetrahydro-1H-pyrrolizin-7a(5H)-yl)methoxy)quinazolin-7-yl)-7-fluorobenzo[b]thiophene-3-carbonitrile]	< 500	< 500	< 500	< 500	≤ 500
C[C@@H]1[C@H](N(C)c2nc(OC[C@@]34CCCN3C[C@H](F)C4)nc3c(F)c(-c4ccc(F)c5sc(N)c(C#N)c45)c(Cl)cc23)CCN1C(=O)n1ccc(F)n1 [Compound 101, 2-amino-4-(6-chloro-8-fluoro-4-(((2R,3R)-1-(3-fluoro-1H-pyrazole-1-carbonyl)-2-methylpyrrolidin-3-yl)(methyl)amino)-2-(((2R,7aS)-2-fluorotetrahydro-1H-pyrrolizin-7a(5H)-yl)methoxy)quinazolin-7-yl)-7-fluorobenzo[b]thiophene-3-carbonitrile]	< 500	< 500	< 500	< 500	≤ 500
CCN(c1nc(OC[C@@]23CCCN2C[C@H](F)C3)nc2c(F)c(-c3ccc(F)c4sc(N)c(C#N)c34)c(Cl)cc12)[C@@H]1CCN(C(=O)n2cc(C#N)nc2C)[C@@H]1C [Compound 102, 1-((2R,3R)-3-((7-(2-amino-3-cyano-7-fluorobenzo[b]thiophen-4-yl)-6-chloro-8-fluoro-2-(((2R,7aS)-2-fluorotetrahydro-1H-pyrrolizin-7a(5H)-yl)methoxy)quinazolin-4-yl)(ethyl)amino)-2-methylpyrrolidine-1-carbonyl)-2-methyl-1H-imidazole-4-carbonitrile]	< 500	< 500	< 500	< 500	≤ 500
CCN(c1nc(OC[C@@]23CCCN2C[C@H](F)C3)nc2c(F)c(-c3ccc(F)c4sc(N)c(C#N)c34)c(Cl)cc12)[C@@H]1CCN(C(=O)n2cc(C)nc2C#N)[C@@H]1C [Compound 104, 1-((2R,3R)-3-((7-(2-amino-3-cyano-7-fluorobenzo[b]thiophen-4-yl)-6-chloro-8-fluoro-2-(((2R,7aS)-2-fluorotetrahydro-1H-pyrrolizin-7a(5H)-yl)methoxy)quinazolin-4-yl)(ethyl)amino)-2-methylpyrrolidine-1-carbonyl)-4-methyl-1H-imidazole-2-carbonitrile]	< 500	< 500	< 500	< 500	≤ 500
CCN(c1nc(OC[C@@]23CCCN2C[C@H](F)C3)nc2c(F)c(-c3ccc(F)c4sc(N)c(C#N)c34)c(Cl)cc12)[C@@H]1CCN(C(=O)n2ccnc2)[C@@H]1C [Compound 106, 4-(4-(((2R,3R)-1-(1H-imidazole-1-carbonyl)-2-methylpyrrolidin-3-yl)(ethyl)amino)-6-chloro-8-fluoro-2-(((2R,7aS)-2-fluorotetrahydro-1H-pyrrolizin-7a(5H)-yl)methoxy)quinazolin-7-yl)-2-amino-7-fluorobenzo[b]thiophene-3-carbonitrile]	< 500	< 500	< 500	< 500	≤ 500
CCN(c1nc(OC[C@@]23CCCN2C[C@H](F)C3)nc2c(F)c(-c3ccc(F)c4sc(N)c(C#N)c34)c(Cl)cc12)[C@@H]1CCN(C(=O)n2cnc(C)c2)[C@@H]1C [Compound 108, 2-amino-4-(6-chloro-4-(ethyl((2R,3R)-2-methyl-1-(4-methyl-1H-imidazole-1-carbonyl)pyrrolidin-3-yl)amino)-8-fluoro-2-(((2R,7aS)-2-fluorotetrahydro-1H-pyrrolizin-7a(5H)-yl)methoxy)quinazolin-7-yl)-7-fluorobenzo[b]thiophene-3-carbonitrile]	< 500	< 500	< 500	< 500	≤ 500
Cc1cn(C(=O)N(C)CC2(F)CN(c3nc(OC[C@@]45CCCN4C[C@H](F)C5)nc4c(F)c(-c5ccc(F)c6sc(N)c(C#N)c56)c(Cl)cc34)C2)cn1 [Compound 109, N-((1-(7-(2-amino-3-cyano-7-fluorobenzo[b]thiophen-4-yl)-6-chloro-8-fluoro-2-(((2R,7aS)-2-fluorotetrahydro-1H-pyrrolizin-7a(5H)-yl)methoxy)quinazolin-4-yl)-3-fluoroazetidin-3-yl)methyl)-N,4-dimethyl-1H-imidazole-1-carboxamide]	< 500	< 500	< 500	< 500	≤ 500
